Tested on: immobilized GST-tagged bait protein domains
Test: ProP-PD phage selections (HD2 P8, sublibraries, HD2 P3, HD1 P8) with NGS and confidence level
Type: binding, human
[1] = bait ANKRA2_Ank__Q9H9E1_142_313, HD2 P8 selection, confidence level -4 to 4: 4 = High, 3 or 2 = Medium, 1 = Low, 0 = Filtered/Noise
[2] = HD2 library, bait SUMO1_SUMO__P63165_1_101, known motif instance of the benchmarking set found (TRUE) or not found (FALSE) among selected peptides
[3] = library HD2, bait EPS15_EH__P42566_121_215, whether the validated benchmark motif instance was recovered in the ProP-PD selection (TRUE/FALSE)
[4] = bait MAP1LC3A_ATG8 (Q9H492 2-121), HD2 library, benchmark motif instance recovered in the ProP-PD selection (TRUE/FALSE)
[5] = bait MAP1LC3B_ATG8 (Q9GZQ8 2-119), HD2 library, benchmark motif instance recovered in the ProP-PD selection (TRUE/FALSE)
[6] = bait KPNA4_Arm (O00629 68-487), HD2 library, benchmark motif instance recovered in the ProP-PD selection (TRUE/FALSE)
[7] = library HD2, bait Keap1_KELCH__Q14145_321_609, whether the validated benchmark motif instance was recovered in the ProP-PD selection (TRUE/FALSE)
[8] = bait CRK_SH3_1_P46108_124_198, library HD2, benchmarking set of validated motif instances, TRUE = motif instance recovered in the ProP-PD selection
[9] = HD2 library, bait TNKS_TANK-peptide-bind__O95271_174_649, known motif instance of the benchmarking set found (TRUE) or not found (FALSE) among selected peptides
[10] = bait OXSR1___O95747_434_527, HD2 library, confidence level (1-4) of best matching selected peptide
[11] = bait OXSR1___O95747_434_527, HD2 library, specificity score of best matching selected peptide
[12] = bait OXSR1___O95747_434_527, HD2 library, whether the validated benchmark motif instance was recovered in the ProP-PD selection (TRUE/FALSE)
[13] = library HD2, bait EPS15_EH__P42566_121_215, best matching peptide
[14] = library HD2, bait EPS15_EH__P42566_121_215, confidence level of best matching peptide (4 High, 2-3 Medium, 1 Low)
[15] = library HD2, bait YAP1_WW_1_P46937_169_207, validated benchmark motif instance, in_library_check TRUE, TRUE/FALSE = instance recovered in ProP-PD selection

Substance: SPFLPDLNFFAADSCL
- HD2 confidence [1]: 2

Substance: SPSLPNITLGLPATGP
- HD confidence (bait ANKRA2_Ank__Q9H9E1_142_313, HD1 P8 library, confidence level (4 = High, 2-3 = Medium, 1 = Low)): 4
- HD mean counts (bait ANKRA2_Ank__Q9H9E1_142_313, HD1 P8 library, mean NGS counts over replicate selections): 701.75
- HD count proportions (bait ANKRA2_Ank__Q9H9E1_142_313, HD1 P8 library, mean proportion of NGS counts): 0.06192

Substance: SQKGNISETIVIDDEEDIETNGGA
- motif_found [2]: FALSE

Substance: SQPAGISTNPFMTGPSSSP
- motif_found [3]: FALSE

Substance: SQPVMRPPNPFGPVSGAQI
- motif_found [3]: FALSE

Substance: SQRIQTNNNPFQVPIEEQR [RELA 138-142]
- motif_found (HD2 library, bait EPS15_EH__P42566_121_215, benchmark motif instance, in_library_check FALSE, in_library_coverage 0): FALSE

Substance: SQSSASSEDYIIILPECFDT
- motif_found [4]: FALSE
- motif_found [5]: FALSE

Substance: SRHAQEPPAKRRKGSKGPEG-
- motif_found [6]: FALSE

Substance: SRWEVIANYMNIHSSS
- HD2-1mM_CaCl confidence (bait CALM1 EF-hand (P0DP23, 2-149), HD2 library selection with 1mM_CaCl, confidence level (4 = High, 2 or 3 = Medium, 1 = Low)): 3
- HD2 confidence (bait CALM1 EF-hand (P0DP23, 2-149), HD2 library selection, confidence level (4 = High, 2 or 3 = Medium, 1 = Low)): 3

Substance: SSDGTCVAARTRPVLSCKKRR
- motif_found (library HD2, bait WDR5_WD_1234567_P61964_21_334, validated benchmark motif instance, in_library_check TRUE, TRUE/FALSE = instance recovered in ProP-PD selection): FALSE

Substance: SSGSSEDSFVEIRMAEGEA
- motif_found [4]: FALSE
- motif_found [5]: FALSE

Substance: SSHRKTKKPLPPTPEEDQILK
- motif_found (library HD2, bait YES1_SH3__P07947_90_152, validated benchmark motif instance, in_library_check TRUE, TRUE/FALSE = instance recovered in ProP-PD selection): FALSE

Substance: SSKPNQKKLIVLSDSEVIQLSDG
- motif_found [2]: FALSE

Substance: SSLEEPHSPETGEKVVAGEV
- motif_found [7]: FALSE

Substance: SSNPPTSVPTAPALSSVIAP
- motif_found (HD2 library, bait TSG101_UEV__Q99816_1_145, known motif instance of the benchmarking set found (TRUE) or not found (FALSE) among selected peptides): FALSE

Substance: SSSSASGSYGHLSASAISPALS
- motif_found (bait SUFU_SUFU__Q9UMX1_1_484, HD2 library, whether the validated benchmark motif instance was recovered in the ProP-PD selection (TRUE/FALSE)): FALSE

Substance: STAQEQDDVLIVDSDEEDSSNNADV
- motif_found [2]: FALSE

Substance: STASKGRYIPPHLRNREATKG
- motif_found (library HD2, bait EIF4E_eIF4E__P06730_1_217, whether the validated benchmark motif instance was recovered in the ProP-PD selection (TRUE/FALSE)): FALSE

Substance: SVEFLDLAHSSESQETISS
- motif_found (library HD2, bait USP7_MATH-TRAF__Q93009_53_206, validated benchmark motif instance, in_library_check TRUE, TRUE/FALSE = instance recovered in ProP-PD selection): FALSE

Substance: SVVSPPELPPRNIPLT
- HD confidence (bait CRK_SH3_1_P46108_124_198, library HD): 2
- HD2 confidence (bait CRK_SH3_1_P46108_124_198, library HD2 P8): 4
- HD2_cytoplasm confidence (bait CRK_SH3_1_P46108_124_198, library HD2 P8 cytoplasm): 4
- HD2_nc confidence (bait CRK_SH3_1_P46108_124_198, library HD2 P8 nucleocytoplasmic): 2
- HD2_nc count proportions (bait CRK_SH3_1_P46108_124_198, library HD2 P8 nucleocytoplasmic, mean normalised NGS counts): 6.106e-06
- HD2_nc mean counts (bait CRK_SH3_1_P46108_124_198, library HD2 P8 nucleocytoplasmic, mean raw NGS counts, all selections): 1.0
- HD count proportions (bait CRK_SH3_1_P46108_124_198, library HD, mean normalised NGS counts): 0.0001782
- HD mean counts (bait CRK_SH3_1_P46108_124_198, library HD, mean raw NGS counts, all selections): 3.0

Substance: SWVAFAHTGAWGTGLP
- HD2 confidence (bait AP2B1_adaptin__P63010_700_937, HD2 P8 selection, non primary paralogue peptide match, confidence level -4 to 4: 4 = High, 3 or 2 = Medium, 1 = Low, 0 = Filtered/Noise): 4

Substance: TDEVPVPPPVPPRRRPESAP,DEVPVPPPVPPRRRPESAPA [SOS1]
- motif_found [8]: FALSE

Substance: TDYRPPDDAVFDIITDEELCQ
- motif_found [5]: FALSE

Substance: TFNSYRKEWEELFVNNNYL [TBC1D5 58-62]
- motif_found (HD2 library, bait MAP1LC3A_ATG8__Q9H492_2_121, benchmark motif instance, in_library_check FALSE, in_library_coverage 0): FALSE
- motif_found (HD2 library, bait MAP1LC3B_ATG8__Q9GZQ8_2_119, benchmark motif instance, in_library_check FALSE, in_library_coverage 0): FALSE

Substance: TGQPTKVGRFQVTTTA
- HD2_cytoplasm confidence (bait OXSR1___O95747_434_527, HD2 P8 cytoplasm sublibrary, confidence level (4 = High, 2-3 = Medium, 1 = Low)): 4

Substance: THHNQASDIIVISSEDSEGSTDVDE
- motif_found [2]: FALSE

Substance: TKSTVTGERQSGDGQESTEPVE
- motif_found [9]: FALSE

Substance: TKVGRFQVTTTANKVG
- best_confidence [10]: 4
- best_specificity [11]: 1
- motif_found [12]: TRUE

Substance: TLALPSLVPQNYTENK
- HD confidence (bait ANKRA2_Ank__Q9H9E1_142_313, library HD): 2
- HD count proportions (bait ANKRA2_Ank__Q9H9E1_142_313, library HD, mean normalised NGS counts): 0.0001017
- HD mean counts (bait ANKRA2_Ank__Q9H9E1_142_313, library HD, mean raw NGS counts, all selections): 1.75

Substance: TLDDSDEDVILVESQDPPLPS
- motif_found [2]: FALSE

Substance: TLVSPKLPSLEAPTSA
- HD2 confidence [1]: 3

Substance: TNAYKLPLAVGPPSLNYIPPVLQLS,LAVGPPSLNYIPP [TEX14]
- motif_found (bait CEP55_EABR__Q53EZ4_160_217, library HD2, benchmarking set of validated motif instances, TRUE = motif instance recovered in the ProP-PD selection): TRUE

Substance: TNGAMNVEIGNPTYKMYEGGEP
- motif_found (HD2 library, bait TLN1_PTB__Q9Y490_309_401, known motif instance of the benchmarking set found (TRUE) or not found (FALSE) among selected peptides): FALSE

Substance: TNLYWPGTAEPLLVSS
- confidence (library HD, bait AP2B1_adaptin__P63010_700_937, ProP-PD peptides with disease-related mutations): 2

Substance: TNPFLNETLQDVQPSP
- best_specificity [13]: 1
- best_confidence [14]: 4
- motif_found [3]: TRUE

Substance: TNPFQPAPPATLTLNQ
- best_specificity [13]: 1
- best_confidence [14]: 4
- motif_found [3]: TRUE

Substance: TPDSRRVARPPPIGAEVPDVTA
- motif_found [9]: FALSE

Substance: TPGAALSWQAAIDAARQAKLMG [CACNA1C]
- motif_found (bait CALM1_EF-hand__P0DP23_2_149, library HD2, benchmarking set of validated motif instances, TRUE = motif instance recovered in the ProP-PD selection): FALSE

Substance: TPPGAKASNPFLPGGGPAT
- motif_found [3]: FALSE

Substance: TPPPPYTVAPGRPLTA
- best_confidence (library HD2, bait YAP1_WW_1_P46937_169_207, confidence level of best matching selected peptide (4 High, 2-3 Medium, 1 Low)): 4
- best_specificity (library HD2, bait YAP1_WW_1_P46937_169_207, specificity score of best matching selected peptide): 1
- motif_found [15]: TRUE

Substance: TPSYSISSTLNPQAPEFILGCTASKIT
- motif_found (bait PABP-B_PABP__P11940_544_623, HD2 library, whether the validated benchmark motif instance was recovered in the ProP-PD selection (TRUE/FALSE)): FALSE

Substance: TPYTAYPPPAQAYGIP
- HD2_nc confidence (bait CEP55_EABR__Q53EZ4_160_217, HD2 P8 nucleocytoplasmic sublibrary, confidence level (4 = High, 2-3 = Medium, 1 = Low)): 4
- HD2_nc mean counts (bait CEP55_EABR__Q53EZ4_160_217, HD2 P8 nucleocytoplasmic sublibrary, mean NGS counts over replicate selections): 482.0
- HD2_nc count proportions (bait CEP55_EABR__Q53EZ4_160_217, HD2 P8 nucleocytoplasmic sublibrary, mean proportion of NGS counts): 0.008703

Substance: TQRSKPQPAVPPRPSADLIL [NCF1]
- motif_found [8]: FALSE

Substance: TQVPGTPPPKYNTLRLER
- motif_found (bait NEDD4_WW_4_P46934_890_928, HD2 library, whether the validated benchmark motif instance was recovered in the ProP-PD selection (TRUE/FALSE)): FALSE
- motif_found [15]: FALSE

Substance: TRKKTFKEVANAVKISASLMGT
- motif_found (library HD2, bait CALM1_EF-hand__P0DP23_2_149, motif instance NOT in library (in_library_check FALSE, in_library_coverage 0)): FALSE

Substance: TSNNRLLNKRRKKQAGSSSA
- motif_found [6]: FALSE

Substance: TTTANKVGRFSVSKTE
- best_confidence [10]: 2
- best_specificity [11]: 1
- motif_found [12]: TRUE

Substance: TVNNCAQDRESPDGSYTEEQSQ
- motif_found [9]: FALSE

Substance: VDLTHNDSVVIVDERRRPRRN
- motif_found [2]: FALSE

Substance: VDPSTGELQSLQMPES
- best_specificity (library HD2, bait Keap1_KELCH__Q14145_321_609, best matching peptide): 1
- best_confidence (library HD2, bait Keap1_KELCH__Q14145_321_609, confidence level of best matching peptide (4 High, 2-3 Medium, 1 Low)): 3
- motif_found [7]: TRUE

Substance: VEEEWVIVSDEEIEEA
- HD2_endomembrane confidence (bait MAP1LC3A_ATG8__Q9H492_2_121, HD2 P8 endomembrane sublibrary, confidence level (4 = High, 2-3 = Medium, 1 = Low)): 4

Substance: VEVIDLTIESSSDEED
- best_confidence (bait SUMO1_SUMO__P63165_1_101, HD2 library, confidence level (1-4) of best matching selected peptide): 4
- best_specificity (bait SUMO1_SUMO__P63165_1_101, HD2 library, specificity score of best matching selected peptide): 1
- motif_found (bait SUMO1_SUMO__P63165_1_101, HD2 library, whether the validated benchmark motif instance was recovered in the ProP-PD selection (TRUE/FALSE)): TRUE

Source: article PMC8769072, “Proteome‐scale mapping of binding sites in the unstructured regions of the human proteome” (Molecular Systems Biology, 2022)
